These results are taken from ChEMBL document CHEMBL1142107, “The effect of halide salts on the production of Gymnoascus reessii polyenylpyrroles” (J Nat Prod, 2007).

Molecules are shown by their SMILES.

Series [1] is described as follows: Cytotoxicity against NS1 cell line up to 15 uM. Particulars: mouse; call rule not given here. The class given is cell-based.
A short description of series [2]: Cytotoxicity against NS1 cell line. The class given is cell-based. Particulars: mouse.

For the molecule `COc1cc(/C(C)=C/C=C/C=C/C=C/c2ccc[nH]2)oc(=O)c1C`, the Activity entry in series [1] is “Not Active”.

In series [2], `COc1cc(/C(C)=C/C=C/C=C/C=C/c2[nH]ccc2Br)oc(=O)c1C` displayed an LD99 of 1.9 µM.

In series [2], `COc1cc(/C(C)=C/C=C/C=C/C=C/c2[nH]ccc2Cl)oc(=O)c1C` had an LD99 of 0.034 µM.
